Assay results as given in PubChem BioAssay (NCI).
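1) Cells in 96-well plates. 2) Compound, 48 h, 5 concentrations. 3) Linear interpolation between surrounding doses. 4) Unreached endpoint = highest concentration. The concentration for full growth arrest is given as TGI.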

Assays:
Experiment in all cases: DTP human tumour cell line panel, 48 h
[1] = tested on: HCT-116 colon
[2] = tested on: HOP-92 NSCLC
[3] = tested on: RXF 393 renal
[4] = tested on: MOLT-4 leukemia
[5] = tested on: TK-10 renal
[6] = tested on: SF-295 CNS
[7] = tested on: ACHN renal
[8] = tested on: RPMI-8226 leukemia
[9] = tested on: MDA-MB-231 breast
[10] = tested on: SK-OV-3 ovarian
[11] = tested on: HL-60(TB) leukemia
[12] = tested on: HOP-62 NSCLC
[13] = tested on: K-562 leukemia
[14] = tested on: NCI/ADR-RES ovarian
[15] = tested on: NCI-H226 lung
[16] = tested on: KM12 colon
[17] = tested on: HS 578T breast
[18] = tested on: SK-MEL-5 melanoma
[19] = tested on: HCC-2998 colon
[20] = tested on: OVCAR-5 ovarian
[21] = tested on: NCI-H23 lung
[22] = tested on: CAKI-1 renal
[23] = tested on: IGROV1 ovarian
[24] = tested on: SNB-75 CNS
[25] = tested on: U251 CNS
[26] = tested on: 786-0 renal
[27] = tested on: MALME-3M melanoma
[28] = tested on: A549 NSCLC
[29] = tested on: SW-620 colon
[30] = tested on: M14 melanoma
[31] = tested on: COLO 205 colon
[32] = tested on: EKVX NSCLC
[33] = tested on: SF-268 CNS
[34] = tested on: NCI-H460 lung
[35] = tested on: MCF7 breast
[36] = tested on: OVCAR-8 ovarian
[37] = tested on: SK-MEL-2 melanoma
[38] = tested on: LOX IMVI melanoma
[39] = tested on: SF-539 CNS
[40] = tested on: UO-31 renal
[41] = tested on: CCRF-CEM leukemia
[42] = tested on: MDA-N
[43] = tested on: PC-3 prostate
[44] = tested on: HCT-15 colon
[45] = tested on: SN12C renal
[46] = tested on: NCI-H522 lung
[47] = tested on: OVCAR-4 ovarian
[48] = tested on: HT29 colon
[49] = tested on: SK-MEL-28 melanoma
[50] = tested on: A498 renal
[51] = tested on: UACC-257 melanoma
[52] = tested on: MDA-MB-435
[53] = tested on: OVCAR-3 ovarian
[54] = tested on: SNB-19 CNS

Measured: TGI

CN(C)CCCNC(=O)CCNC(=O)c1cc(NC(=O)c2cc(NC(=O)c3cc(NC(=O)CCCNC(=O)c4cc(NC(=O)c5cc(NC(=O)c6nccn6C)cn5C)cn4C)cn3C)cn2C)cn1C
> 100 µM: all assays above
